PubChem BioAssay AID1259411 (Chemical Carcinogenesis Research Information System (CCRIS), 2018)
Active and inactive are the calls of the source. How the calls were made is not given here.

System: rodent carcinogenicity bioassays, tumor incidence
Assay: CCRIS carcinogenicity studies
In short: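 NCI-built, expert-reviewed records of carcinogenicity and related test outcomes (mutagenicity, tumor promotion/inhibition) compiled from published and report sources, historical span 1985-2011, not updated.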

Structure (SMILES): CCOC(=O)C(C)Oc1ccc(Oc2nc3ccc(Cl)cc3o2)cc1 (centres undefined)
- carcinogen call (Species: Mouse, Strain/Sex: Strain not given in source/Female (50/Group), Route: Oral, Dose: 0, 2.5, 10, 40 ppm in diet for 24 mo, study duration 24 mo, Dose: 0, 2.5, 10, 40 ppm in diet for 24 mo, study duration 24 mo): inactive; negative
- carcinogen call (Species: Mouse, Strain/Sex: Strain not given in source/Male (50/Group), Route: Oral, Dose: 0, 2.5, 10, 40 ppm in diet for 24 mo, study duration 24 mo, Dose: 0, 2.5, 10, 40 ppm in diet for 24 mo, study duration 24 mo): inactive; negative
- carcinogen call (Species: Rat, Strain/Sex: Strain not given in source/Female (60/Group), Route: Oral, Dose: 0, 5, 30, 180 ppm (0; 0.33; 2.00; 11.87 mg/kg) in diet for up to 28 mo, study duration 28 mo, Dose: 0, 5, 30, 180 ppm (0; 0.33; 2.00; 11.87 mg/kg) in diet for up to 28 mo, study duration 28 mo): inactive; negative
- carcinogen call (Species: Rat, Strain/Sex: Strain not given in source/Male (60/Group), Route: Oral, Dose: 0, 5, 30, 180 ppm (0; 0.26; 1.58; 9.43 mg/kg) in diet for up to 28 mo, study duration 28 mo, Dose: 0, 5, 30, 180 ppm (0; 0.26; 1.58; 9.43 mg/kg) in diet for up to 28 mo, study duration 28 mo): inactive; negative

Structure (SMILES): CC[N+]([O-])=NC
- carcinogen call (Species: RAT, Strain/Sex: F344/MALE, Route: ORAL, Dose: 0, 12, 48 MG/ML IN A NEUTRAL DEIONIZED DRINKING WATER SOLUTION 5 D/WK FOR 30 WK (TOTAL DOSE 36; 115 MG) (STUDY DURATION:, Dose: 0, 12, 48 MG/ML IN A NEUTRAL DEIONIZED DRINKING WATER SOLUTION 5 D/WK FOR 30 WK (TOTAL DOSE 36; 115 MG) (STUDY DURATION:, Tumor Site: Type of Lesion: LIVER: CARCINOMA, HEMANGIOSARCOMA, COLON: ADENOCARCINOMA, ADENOMA, ILEUM: TUMOR, Tumor Site: Type of Lesion: LIVER: CARCINOMA, HEMANGIOSARCOMA, COLON: ADENOCARCINOMA, ADENOMA, ILEUM: TUMOR): active; positive

Structure (SMILES): ClC1=C(Cl)C2(Cl)C3C(Cl)C=CC3C1(Cl)C2(Cl)Cl (centres undefined)
- carcinogen call (Species: MOUSE, Strain/Sex: B6C3F1/FEMALE, Route: ORAL, Dose: 0, 9, 18 PPM IN DIET, Dose: 0, 9, 18 PPM IN DIET, Tumor Site: Type of Lesion: LIVER: HEPATOCELLULAR CARCINOMA): active; positive
- carcinogen call (Species: MOUSE, Strain/Sex: B6C3F1/MALE, Route: ORAL, Dose: 0, 6.1, 13.8 PPM IN DIET, TWA, Dose: 0, 6.1, 13.8 PPM IN DIET, TWA, Tumor Site: Type of Lesion: LIVER: HEPATOCELLULAR CARCINOMA): active; positive
- carcinogen call (Species: RAT, Strain/Sex: OSBORNE-MENDEL/FEMALE, Route: ORAL, Dose: 0, 25.7, 51.3 PPM IN DIET FOR 80 WK (STUDY DURATION: 111 WK), Dose: 0, 25.7, 51.3 PPM IN DIET FOR 80 WK (STUDY DURATION: 111 WK), Tumor Site: Type of Lesion: THYROID GLAND: FOLLICULAR CELL CARCINOMA OR ADENOMA): equivocal
- carcinogen call (Species: RAT, Strain/Sex: OSBORNE-MENDEL/MALE, Route: ORAL, Dose: 0, 38.9, 77.9 PPM IN DIET, TWA, Dose: 0, 38.9, 77.9 PPM IN DIET, TWA): inactive; negative

Structure (SMILES): O=C[C@H](O)[C@@H](O)[C@H](O)CO
- carcinogen call (Species: RAT, Strain/Sex: FISCHER 344/MALE, FEMALE (50/GROUP), Route: DIET, Dose: 0, 2.5, 5% IN DIET FOR 104 WKS (STUDY DURATION: 104 WKS), Dose: 0, 2.5, 5% IN DIET FOR 104 WKS (STUDY DURATION: 104 WKS)): inactive; negative

Structure (SMILES): CCOC(=O)C(O)(c1ccc(Cl)cc1)c1ccc(Cl)cc1
- carcinogen call (Species: MOUSE, Strain/Sex: B6C3F1/FEMALE, Route: ORAL, Dose: 0, 3200, 5908 PPM IN DIET FOR 78 WK (STUDY DURATION: 90-91 WK), Dose: 0, 3200, 5908 PPM IN DIET FOR 78 WK (STUDY DURATION: 90-91 WK), Tumor Site: Type of Lesion: LIVER: HEPATOCELLULAR CARCINOMA): active; positive
- carcinogen call (Species: MOUSE, Strain/Sex: B6C3F1/MALE, Route: ORAL, Dose: 0, 4231, 7846 PPM IN DIET FOR 78 WK (STUDY DURATION: 90-91 WK), Dose: 0, 4231, 7846 PPM IN DIET FOR 78 WK (STUDY DURATION: 90-91 WK), Tumor Site: Type of Lesion: LIVER: HEPATOCELLULAR CARCINOMA): active; positive
- carcinogen call (Species: RAT, Strain/Sex: OSBORNE-MENDEL/FEMALE, Route: ORAL, Dose: 0, 1175, 2229 PPM IN DIET FOR 78 WK (STUDY DURATION: 110-111 WK), Dose: 0, 1175, 2229 PPM IN DIET FOR 78 WK (STUDY DURATION: 110-111 WK), Tumor Site: Type of Lesion: ADRENAL GLAND: CORTICAL ADENOMA): equivocal
- carcinogen call (Species: RAT, Strain/Sex: OSBORNE-MENDEL/MALE, Route: ORAL, Dose: 0, 1600, 2995 PPM IN DIET FOR 78 WK (STUDY DURATION: 110-111 WK), Dose: 0, 1600, 2995 PPM IN DIET FOR 78 WK (STUDY DURATION: 110-111 WK), Tumor Site: Type of Lesion: ADRENAL GLAND: CORTICAL ADENOMA): equivocal

Structure (SMILES): O=[N+]([O-])c1ccc(/C=C/c2cnc(N(CO)CO)nn2)o1
- carcinogen call (Species: RAT, Strain/Sex: WISTAR/MALE, Route: ORAL, Dose: 0, 350, 1750, 3500 PPM IN POWDERED BASAL DIET (STUDY DURATION: 35 WK), Dose: 0, 350, 1750, 3500 PPM IN POWDERED BASAL DIET (STUDY DURATION: 35 WK), Tumor Site: Type of Lesion: FORESTOMACH, SQUAMOUS CELL PAPILLOMA, DUODENUM: ADENOCARCINOMA, SMALL INTESTINE: ADENOCARCINOMA, Tumor Site: Type of Lesion: FORESTOMACH, SQUAMOUS CELL PAPILLOMA, DUODENUM: ADENOCARCINOMA, SMALL INTESTINE: ADENOCARCINOMA): active; positive

Structure (SMILES): Cn1c([N+](=O)[O-])cnc1C1=NOC2CCCCC12 (centres undefined)
- carcinogen call (Species: MOUSE, Strain/Sex: SWISS/FEMALE, Route: INTRAPERITONEAL, Dose: 0, 80 UG/G BW 1/D FOR 30 DAYS (STUDY DURATION: LIFETIME), Tumor Site: Type of Lesion: LYMPHATIC SYSTEM: LYMPHOMA): active; positive

Structure (SMILES): CC(=O)Nc1ccc(-c2ccc(NC(C)=O)cc2)cc1
- carcinogen call (Species: RAT, Route: INTRAPERITONEAL, Tumor Site: Type of Lesion: EAR (CANAL), MAMMARY GLAND, INTEGUMENTARY SYSTEM (SKIN), Tumor Site: Type of Lesion: EAR (CANAL), MAMMARY GLAND, INTEGUMENTARY SYSTEM (SKIN)): active; positive
- carcinogen call (Species: RAT, Route: ORAL, Tumor Site: Type of Lesion: EAR (CANAL)): active; positive
- carcinogen call (Species: RAT, Route: SUBCUTANEOUS, Tumor Site: Type of Lesion: MAMMARY GLAND, LIVER, EAR (ZYMBAL GLAND), Tumor Site: Type of Lesion: MAMMARY GLAND, LIVER, EAR (ZYMBAL GLAND)): active; positive

Structure (SMILES): CC(C)Nc1nc(Cl)nc(NCC(=O)O)n1
- carcinogen call (Species: Mouse, Strain/Sex: Crl:CD-1(ICR)BR/Female, Route: Oral, Dose: 0, 10, 30, 300, 900 ppm in diet for 18 mo, Dose: 0, 10, 30, 300, 900 ppm in diet for 18 mo): inactive; negative
- carcinogen call (Species: Mouse, Strain/Sex: Crl:CD-1(ICR)BR/Male, Route: Oral, Dose: 0, 10, 30, 300, 900 ppm in diet for 18 mo, Dose: 0, 10, 30, 300, 900 ppm in diet for 18 mo, Tumor Site: Type of Lesion: Liver: Multiple hepatocellular adenomas (3/60 at 900 ppm vs. 0/60 in controls) Blood Vessels: Hemangiosarcomas (2/60 at): active; positive (only at highest dose)
- carcinogen call (Species: Rat, Strain/Sex: Crl:CD BR/Female, Route: Oral, Dose: 0, 5, 15, 30, 300, 900 ppm in diet for 24 mo, Dose: 0, 5, 15, 30, 300, 900 ppm in diet for 24 mo): inactive; negative
- carcinogen call (Species: Rat, Strain/Sex: Crl:CD BR/Male, Route: Oral, Dose: 0, 5, 15, 30, 300, 900 ppm in diet for 24 mo, Dose: 0, 5, 15, 30, 300, 900 ppm in diet for 24 mo, Tumor Site: Type of Lesion: Thyroid: Thyroid follicular cell adenoma): active; positive (at highest dose only); ca dpr describes as a possible adverse effect

Structure (SMILES): ClC[C@H]1O[C@@H]1Cl
- carcinogen call (Species: MOUSE, Strain/Sex: ICR/FEMALE, Route: DERMAL, Dose: 10 MG IN 0.1 ML ACETONE 3/WK FOR LIFE, Tumor Site: Type of Lesion: INTEGUMENTARY SYSTEM (SKIN): PAPILLOMA, SQUAMOUS CELL CARCINOMA): active; positive
- carcinogen call (Species: MOUSE, Strain/Sex: ICR/FEMALE, Route: SUBCUTANEOUS, Dose: 500 UG IN 0.05 ML TRICAPRYLIN 1/WK FOR LIFE, Tumor Site: Type of Lesion: INJECTION SITE: FIBROSARCOMA): active; positive

Structure (SMILES): C=CC(=O)OC
- carcinogen call (Species: RAT, Strain/Sex: SPRAGUE-DAWLEY/FEMALE, Route: INHALATION, Dose: 0, 15, 45, 135 PPM 6 HR/D 5 D/WK FOR 24 MO (STUDY DURATION: 130 WK), Dose: 0, 15, 45, 135 PPM 6 HR/D 5 D/WK FOR 24 MO (STUDY DURATION: 130 WK)): inactive; negative
- carcinogen call (Species: RAT, Strain/Sex: SPRAGUE-DAWLEY/MALE, Route: INHALATION, Dose: 0, 15, 45, 135 PPM 6 HR/D 5 D/WK FOR 24 MO (STUDY DURATION: 130 WK), Dose: 0, 15, 45, 135 PPM 6 HR/D 5 D/WK FOR 24 MO (STUDY DURATION: 130 WK)): inactive; negative

Structure (SMILES): CC(=O)N(O)c1ccc2ccc3cccc4ccc1c2c34
- carcinogen call (Species: RAT, Strain/Sex: STRAIN-CD/FEMALE, Route: INTRAPERITONEAL, Dose: 0, 67 UMOL/KG BW IN DMSO 3/WK FOR 4 WK (STUDY DURATION: 61 WK)): inactive; negative
- carcinogen call (Species: RAT, Strain/Sex: STRAIN-CD/FEMALE, Route: INTRAPERITONEAL, Dose: 0, 67 UMOL/KG/BW IN 25 UMOL/ML DMSO 3/WK FOR 4 WK (TOTAL DOSE: 0; 119 UMOL) ADMINISTERED TO WEANLING RATS (STUDY DURATIO, Dose: 0, 67 UMOL/KG/BW IN 25 UMOL/ML DMSO 3/WK FOR 4 WK (TOTAL DOSE: 0; 119 UMOL) ADMINISTERED TO WEANLING RATS (STUDY DURATIO): inactive; negative
